PubChem BioAssay AID328 (DTP/NCI, 2004)
“And” between values parts separate entries of the source, which are not always exact repeats. Equal entries are not always repeated. Inconclusive results and toxic doses are left out.

Test system: BDF1 mice, P388 leukemia ip, median survival T/C
Assay: NCI In Vivo Anticancer Drug Screen. Data for tumor model P388 Leukemia (intraperitoneal) in B6D2F1 (BDF1) mice
Details: endpoint: median survival time, higher = longer survival
How it was run: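 Read-out is survival of treated animals expressed relative to the vehicle group, as a T/C ratio.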

[1] = dose: 25.0 mg/kg/injection, schedule: Q01DX009 (ip), vehicle: saline with Tween-80
[2] = dose: 50.0 mg/kg/injection, schedule: Q01DX009 (ip), vehicle: Klucel (hydroxypropylcellulose) (HPC)
[3] = dose: 50.0 mg/kg/injection, schedule: Q01DX009 (ip), vehicle: saline with Tween-80
[4] = dose: 100.0 mg/kg/injection, schedule: Q01DX009 (ip), vehicle: saline with Tween-80
[5] = dose: 100.0 mg/kg/injection, schedule: Q04DX003 (ip), vehicle: saline with Tween-80
[6] = dose: 200.0 mg/kg/injection, schedule: Q04DX003 (ip), vehicle: saline with Tween-80
[7] = dose: 100.0 mg/kg/injection, schedule: Q01DX009 (ip), vehicle: Klucel (hydroxypropylcellulose) (HPC)
[8] = dose: 50.0 mg/kg/injection, schedule: Q01DX009 (ip), vehicle: other
[9] = dose: 200.0 mg/kg/injection, schedule: Q01DX009 (ip), vehicle: other

CCN1CSC(=S)N(CC)C1
T/C (dose: 12.5 mg/kg/injection, schedule: Q01DX009 (ip), vehicle: Klucel (hydroxypropylcellulose) (HPC)): 110 % of control
T/C (dose: 25.0 mg/kg/injection, schedule: Q01DX009 (ip), vehicle: Klucel (hydroxypropylcellulose) (HPC)): 110 % of control
T/C [1]: 109 % of control
T/C (dose: 25.0 mg/kg/injection, schedule: Q04DX003 (ip), vehicle: Klucel (hydroxypropylcellulose) (HPC)): 95 % of control
T/C (dose: 37.5 mg/kg/injection, schedule: Q01DX009 (ip), vehicle: saline with Tween-80): 109 % of control
T/C [2]: 110 % of control
T/C [3]: 109 % of control
T/C (dose: 50.0 mg/kg/injection, schedule: Q04DX003 (ip), vehicle: Klucel (hydroxypropylcellulose) (HPC)): 87 % of control
T/C (dose: 75.0 mg/kg/injection, schedule: Q01DX009 (ip), vehicle: saline with Tween-80): 119 % of control
T/C [4]: 122 % of control

CC[C@]1(O)CC(OC2CC(N(C)C)C(O)C(C)O2)c2c(cc3c(c2O)C(=O)c2c(O)cccc2C3=O)[C@@H]1C(=O)OC (stereo partly specified)
T/C (dose: 1.25 mg/kg/injection, schedule: Q01DX001 (ip), vehicle: saline): 104 % of control and 110 % of control
T/C (dose: 2.5 mg/kg/injection, schedule: Q01DX001 (ip), vehicle: saline): 100 % of control and 109 % of control
T/C (dose: 5.0 mg/kg/injection, schedule: Q01DX001 (ip), vehicle: saline): 100 % of control
T/C (dose: 10.0 mg/kg/injection, schedule: Q01DX001 (ip), vehicle: saline): 100 % of control

C=C(C)C(N)C(=O)O (stereo unspecified)
T/C [5]: 118 % of control
T/C [6]: 104 % of control
T/C (dose: 400.0 mg/kg/injection, schedule: Q04DX003 (ip), vehicle: saline with Tween-80): 118 % of control

Nc1ccc(C(=O)O)cc1S(=O)(=O)c1cc(C(=O)O)ccc1N
T/C [2]: 88 % of control
T/C [7]: 91 % of control

CC12CCC3(CC1CCC(OC(=O)c1ccccc1)C2)OCCO3 (stereo unspecified)
T/C (dose: 22.0 mg/kg/injection, schedule: Q01DX009 (ip), vehicle: other): 109 % of control
T/C (dose: 33.0 mg/kg/injection, schedule: Q01DX009 (ip), vehicle: other): 109 % of control
T/C (dose: 44.0 mg/kg/injection, schedule: Q04DX003 (ip), vehicle: other): 100 % of control
T/C [8]: 109 % of control
T/C (dose: 66.0 mg/kg/injection, schedule: Q04DX003 (ip), vehicle: other): 109 % of control
T/C (dose: 75.0 mg/kg/injection, schedule: Q01DX009 (ip), vehicle: other): 109 % of control
T/C (dose: 100.0 mg/kg/injection, schedule: Q04DX003 (ip), vehicle: other): 100 % of control
T/C (dose: 150.0 mg/kg/injection, schedule: Q04DX003 (ip), vehicle: other): 100 % of control
T/C [9]: 109 % of control
T/C (dose: 200.0 mg/kg/injection, schedule: Q04DX003 (ip), vehicle: other): 109 % of control
T/C (dose: 400.0 mg/kg/injection, schedule: Q01DX009 (ip), vehicle: other): 104 % of control
T/C (dose: 400.0 mg/kg/injection, schedule: Q04DX003 (ip), vehicle: other): 109 % of control

CCOC(=N)CC(=N)OCC
T/C (dose: 100.0 mg/kg/injection, schedule: Q01DX009 (ip), vehicle: water): 103 % of control
T/C (dose: 100.0 mg/kg/injection, schedule: Q04DX003 (ip), vehicle: water): 104 % of control
T/C (dose: 200.0 mg/kg/injection, schedule: Q01DX009 (ip), vehicle: water): 103 % of control
T/C (dose: 200.0 mg/kg/injection, schedule: Q04DX003 (ip), vehicle: water): 100 % of control
T/C (dose: 400.0 mg/kg/injection, schedule: Q01DX009 (ip), vehicle: water): 101 % of control
T/C (dose: 400.0 mg/kg/injection, schedule: Q04DX003 (ip), vehicle: water): 100 % of control

O=C1C=C(C2OC(CO)C(O)C2O)C(=O)N1 (stereo unspecified)
T/C (dose: 0.2 mg/kg/injection, schedule: Q01DX010 (ip), vehicle: saline): 110 % of control
T/C (dose: 0.37 mg/kg/injection, schedule: Q01DX001 (ip), vehicle: saline): 95 % of control
T/C (dose: 0.5 mg/kg/injection, schedule: Q01DX010 (ip), vehicle: saline): 110 % of control
T/C (dose: 0.75 mg/kg/injection, schedule: Q01DX001 (ip), vehicle: saline): 91 % of control
T/C (dose: 1.5 mg/kg/injection, schedule: Q01DX001 (ip), vehicle: saline): 95 % of control
T/C (dose: 2.0 mg/kg/injection, schedule: Q01DX010 (ip), vehicle: saline): 150 % of control
T/C (dose: 3.0 mg/kg/injection, schedule: Q01DX001 (ip), vehicle: saline): 110 % of control
T/C (dose: 6.0 mg/kg/injection, schedule: Q01DX001 (ip), vehicle: saline): 100 % of control
T/C (dose: 8.0 mg/kg/injection, schedule: Q01DX010 (ip), vehicle: saline): 150 % of control and 155 % of control and 157 % of control
T/C (dose: 12.0 mg/kg/injection, schedule: Q01DX001 (ip), vehicle: saline): 100 % of control
T/C (dose: 16.0 mg/kg/injection, schedule: Q01DX010 (ip), vehicle: saline): 121 % of control

CC(c1ccccc1)[n+]1ccccc1C1OCCO1 (stereo unspecified)
T/C (dose: 6.25 mg/kg/injection, schedule: Q04DX003 (ip), vehicle: saline): 100 % of control
T/C (dose: 12.5 mg/kg/injection, schedule: Q04DX003 (ip), vehicle: saline): 97 % of control

CC(=O)N(C)Nc1ccccc1
T/C (dose: 50.0 mg/kg/injection, schedule: Q04DX003 (ip), vehicle: saline with Tween-80): 100 % of control
T/C [5]: 90 % of control and 100 % of control
T/C [6]: 105 % of control

O=C1NC(=O)C(CSCc2ccccc2)(CSCc2ccccc2)N1
T/C (dose: 3.12 mg/kg/injection, schedule: Q04DX003 (ip), vehicle: saline with Tween-80): 101 % of control
T/C (dose: 6.25 mg/kg/injection, schedule: Q04DX003 (ip), vehicle: saline with Tween-80): 102 % of control
T/C (dose: 12.5 mg/kg/injection, schedule: Q04DX003 (ip), vehicle: saline with Tween-80): 99 % of control
T/C [1]: 99 % of control
T/C (dose: 25.0 mg/kg/injection, schedule: Q04DX003 (ip), vehicle: saline with Tween-80): 98 % of control
T/C [3]: 107 % of control
T/C [4]: 92 % of control
T/C (dose: 400.0 mg/kg/injection, schedule: Q01DX009 (ip), vehicle: saline with Tween-80): 86 % of control

CCOC(=O)/C=C\c1c(OC)nc2ccccn2c1=O (tested in a mixture with another compound)
T/C [7]: 116 % of control
T/C (dose: 100.0 mg/kg/injection, schedule: Q04DX003 (ip), vehicle: Klucel (hydroxypropylcellulose) (HPC)): 122 % of control
T/C (dose: 200.0 mg/kg/injection, schedule: Q01DX009 (ip), vehicle: Klucel (hydroxypropylcellulose) (HPC)): 121 % of control
T/C (dose: 200.0 mg/kg/injection, schedule: Q04DX003 (ip), vehicle: Klucel (hydroxypropylcellulose) (HPC)): 109 % of control
T/C (dose: 400.0 mg/kg/injection, schedule: Q01DX009 (ip), vehicle: Klucel (hydroxypropylcellulose) (HPC)): 111 % of control
T/C (dose: 400.0 mg/kg/injection, schedule: Q04DX003 (ip), vehicle: Klucel (hydroxypropylcellulose) (HPC)): 113 % of control

C1CCC2(CC1)SSC1(CCCCC1)S2
T/C [8]: 104 % of control
T/C (dose: 100.0 mg/kg/injection, schedule: Q01DX009 (ip), vehicle: other): 100 % of control
T/C [9]: 95 % of control

CCCNC1=C(N2CC2)C(=O)C(NCCC)=C(N2CC2)C1=O
T/C (dose: 1.5 mg/kg/injection, schedule: Q01DX009 (ip), vehicle: saline): 161 % of control
T/C (dose: 3.0 mg/kg/injection, schedule: Q01DX009 (ip), vehicle: saline): 166 % of control and 203 % of control
T/C (dose: 6.0 mg/kg/injection, schedule: Q01DX009 (ip), vehicle: saline): 251 % of control and 208 % of control

O=[N+]([O-])c1cccc(C[n+]2ccccc2C2OCCO2)c1
T/C (dose: 8.75 mg/kg/injection, schedule: Q01DX009 (ip), vehicle: saline): 104 % of control
T/C (dose: 17.5 mg/kg/injection, schedule: Q01DX009 (ip), vehicle: saline): 100 % of control
T/C (dose: 26.25 mg/kg/injection, schedule: Q04DX003 (ip), vehicle: saline): 100 % of control
T/C (dose: 35.0 mg/kg/injection, schedule: Q01DX009 (ip), vehicle: saline): 109 % of control
T/C (dose: 52.5 mg/kg/injection, schedule: Q04DX003 (ip), vehicle: saline): 95 % of control

Cn1cncc1CC(Cl)CO (stereo unspecified)
T/C (dose: 25.0 mg/kg/injection, schedule: Q01DX009 (ip), vehicle: saline): 100 % of control
T/C (dose: 50.0 mg/kg/injection, schedule: Q01DX009 (ip), vehicle: saline): 99 % of control
T/C (dose: 100.0 mg/kg/injection, schedule: Q01DX009 (ip), vehicle: saline): 103 % of control
